# Reference: US10953012B2, “Heterocyclic compounds for the inhibition of pask” (BioEnergenix LLC, priority 2011, dated 2021)
# What was measured:
# [1] = target: PASK (UniProt #Q96RG2; residues 879-1323) (Homo sapiens (Human), UniProt Q96RG2); assay: PASK ATP Radiochemical Assay; assay type: biochemical; conditions: 33P-ATP radiochemical assay; read-out: IC50 Kinase Domain
# Protocol: PASK ATP Radiochemical Assay Purified PASK (UniProt #Q96RG2; human recombinant N-terminal GST tagged construct, residues 879-1323) from insect cells (final concentration 5 nM) is added to freshly prepared Base Reaction Buffer containing 20 mM HEPES (pH 7.5), 10 mM MgCl2, 1 mM EGTA, 0.02% Brij35, 0.02 mg/ml BSA, 0.1 mM Na3VO4, 2 mM DTT, 1% DMSO and Myelin Basic Protein (20 μM final). Test compounds in DMSO are then added and the mixture, followed by delivery of ^33P-ATP (specific activity 0.01 μCi/μl final) to initiate the reaction. The kinase reaction is incubated for 120 min at room temperature. The entire reaction mixture is washed through onto a P81 Phosphocellulose paper and washed three times for 10 minutes in 75 mM phosphoric acid and once in methanol prior to drying and scintillation counting.
# [2] = target: PASK (Homo sapiens (Human), UniProt Q96RG2); assay: PAS Kinase FRET Assay; assay type: biochemical; conditions: TR-FRET assay; read-out: IC50 Kinase Domain
# How it was run: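 Reaction buffer: 50 mM HEPES, 10 mM MgCl2, 1 mM EGTA, 2 mM DTT, 0.01% Tween-20. Test compounds (eleven-point series prepared at 4× final) preceded PASK and substrate/ATP. Reaction ran 2 h at 25 °C in the dark, then stopped. Phospho-ULight peptide detected by Eu-antibody TR-FRET, 665/615 nm ratio.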
# [3] = target: CK2a2 (Homo sapiens (Human), UniProt P19784); assay: Biochemical Assay for CK2 Activity; conditions: 33P-ATP radiochemical assay; read-out: IC50 CK2 a2
# Protocol: Biochemical Assay for CK2 Activity
# Purified CK2a2 (NP_001887; human full-length protein, GST tagged) from insect cells (final concentration 1.2 nM) is added to freshly prepared Base Reaction Buffer containing 20 mM Hepes (pH 7.5), 10 mM MgCl2, 1 mM EGTA, 0.02% Brij35, 0.02 mg/ml BSA, 0.1 mM Na3VO4, 2 mM DTT, 1% DMSO and CK2 sub [RRRDDDSDDD] (20 μM final). Test compounds in DMSO are then added and the mixture, followed by delivery of ^33P-ATP (specific activity 0.01 μCi/μl final) to initiate the reaction. The kinase reaction is incubated for 120 min at room temperature. The entire reaction mixture is washed through onto a P81 Phosphocellulose paper and washed three times for 10 minutes in 75 mM phosphoric acid and once in methanol prior to drying and scintillation counting.
# Chain of PASK (Homo sapiens (Human), UniProt Q96RG2) (Q96RG2 999-1251): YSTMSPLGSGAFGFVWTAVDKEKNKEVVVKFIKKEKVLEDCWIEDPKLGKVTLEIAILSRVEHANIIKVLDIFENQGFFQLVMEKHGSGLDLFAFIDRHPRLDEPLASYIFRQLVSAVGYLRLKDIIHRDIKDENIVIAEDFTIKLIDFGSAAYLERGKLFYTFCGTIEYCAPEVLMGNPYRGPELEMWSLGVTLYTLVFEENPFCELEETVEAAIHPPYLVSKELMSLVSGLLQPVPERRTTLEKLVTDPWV
# Chain of CK2a2 (P19784 whole entry): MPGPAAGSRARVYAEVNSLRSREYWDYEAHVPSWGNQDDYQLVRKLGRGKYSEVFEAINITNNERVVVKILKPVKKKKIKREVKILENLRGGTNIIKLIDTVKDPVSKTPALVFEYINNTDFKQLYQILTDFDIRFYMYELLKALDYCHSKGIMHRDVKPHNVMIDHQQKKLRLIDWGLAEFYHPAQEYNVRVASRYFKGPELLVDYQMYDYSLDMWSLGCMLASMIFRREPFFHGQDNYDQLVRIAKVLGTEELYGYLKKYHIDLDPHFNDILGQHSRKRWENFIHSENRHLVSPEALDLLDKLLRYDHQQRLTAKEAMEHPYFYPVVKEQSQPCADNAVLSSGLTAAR
# Chain of PASK (UniProt #Q96RG2; residues 879-1323) (Homo sapiens (Human), UniProt Q96RG2) (Q96RG2 879-1323): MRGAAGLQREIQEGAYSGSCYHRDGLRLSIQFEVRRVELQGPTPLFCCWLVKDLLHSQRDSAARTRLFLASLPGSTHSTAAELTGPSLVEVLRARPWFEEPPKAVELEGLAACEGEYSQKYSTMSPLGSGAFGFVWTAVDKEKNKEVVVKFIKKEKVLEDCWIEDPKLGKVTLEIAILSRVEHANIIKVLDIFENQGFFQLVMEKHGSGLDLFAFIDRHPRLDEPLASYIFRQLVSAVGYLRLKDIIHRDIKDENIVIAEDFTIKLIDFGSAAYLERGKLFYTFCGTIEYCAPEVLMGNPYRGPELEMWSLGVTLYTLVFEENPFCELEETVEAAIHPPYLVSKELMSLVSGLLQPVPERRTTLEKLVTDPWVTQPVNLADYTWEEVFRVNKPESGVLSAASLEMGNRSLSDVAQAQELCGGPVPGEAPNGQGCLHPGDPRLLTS
IC50 [1] [µM],IC50 [2] [µM],IC50 [3] [µM],Compound
≤ 10,≤ 10,≤ 10,"O=C(c1cnn2c(=O)cc(-c3ccc4c(c3)OCCO4)[nH]c12)N1CCOCC1 [Example 106, 5-(2,3-Dihydrobenzo[b][1,4]dioxin-6-yl)-3-(morpholine-4-carbonyl)pyrazolo[1,5-a]pyrimidin-7(4H)-one]"
≤ 10,≤ 10,≤ 10,"CN1CCN(C(=O)c2cnn3c(=O)cc(-c4ccc5c(c4)OCCO5)[nH]c23)CC1 [Example 107, 5-(2,3-Dihydrobenzo[b][1,4]dioxin-6-yl)-3-(4-methylpiperazine-1-carbonyl)pyrazolo[1,5-a]pyrimidin-7(4H)-one]"
≤ 10,≤ 10,≤ 10,"O=C(NCc1ccccc1)c1cnn2c(=O)cc(-c3ccc4c(c3)OCCO4)[nH]c12 [Example 108, N-Benzyl-5-(2,3-dihydrobenzo[b][1,4]dioxin-6-yl)-7-oxo-4,7-dihydropyrazolo[1,5-a]pyrimidine-3-carboxamide]"
≤ 10,≤ 10,≤ 10,"O=c1cc(-c2ccc(Cl)cc2)[nH]c2c(-c3ccccn3)cnn12 [Example 109, 5-(4-Chlorophenyl)-3-(pyridin-2-yl)pyrazolo[1,5-a]pyrimidin-7(4H)-one]"
≤ 10,≤ 10,≤ 10,"COc1ccc(-c2cc(=O)n3ncc(-c4ccccn4)c3[nH]2)c(OC)c1 [Example 110, 5-(2,4-Dimethoxyphenyl)-3-(pyridin-2-yl)pyrazolo[1,5-a]pyrimidin-7(4H)-one]"
≤ 10,≤ 10,≤ 10,"COc1ccc(-c2cc(=O)n3ncc(-c4ccccn4)c3[nH]2)cc1OC [Example 111, 5-(3,4-Dimethoxyphenyl)-3-(pyridin-2-yl)pyrazolo[1,5-a]pyrimidin-7(4H)-one]"
≤ 10,≤ 10,≤ 10,"N#Cc1cnn2c(=O)cc(-c3ccc4c(c3)OCCO4)[nH]c12 [Example 113, 5-(2,3-Dihydrobenzo[b][1,4]dioxin-6-yl)-7-oxo-4,7-dihydropyrazolo[1,5-a]pyrimidine-3-carbonitrile]"
≤ 10,≤ 10,≤ 10,"NC(=O)c1cnn2c(=O)cc(-c3ccc4c(c3)OCCO4)[nH]c12 [Example 114, 5-(2,3-Dihydrobenzo[b][1,4]dioxin-6-yl)-7-oxo-4,7-dihydropyrazolo[1,5-a]pyrimidine-3-carboxamide]"
≤ 10,≤ 10,≤ 10,"O=c1c2c([nH]c3c(-c4ccccn4)cnn13)-c1ccccc1CC2 [Example 116, 11-(Pyridin-2-yl)-5,6-dihydrobenzo[h]pyrazolo[5,1-b]quinazolin-7(12H)-one]"
≤ 10,≤ 10,≤ 10,"O=c1cc(-c2ccc3c(c2)OCCO3)[nH]c2c(-c3ccccc3)c(C(F)(F)F)nn12 [Example 117, 5-(2,3-Dihydrobenzo[b][1,4]dioxin-6-yl)-3-phenyl-2-(trifluoromethyl)pyrazolo[1,5-a]pyrimidin-7(4H)-one]"
≤ 10,≤ 10,≤ 10,"O=c1cc(-c2ccc3c(c2)OCCO3)[nH]c2c(-c3ccc(N4CCCC4)nc3)cnn12 [Example 119, 5-(2,3-Dihydrobenzo[b][1,4]dioxin-6-yl)-3-(6-(pyrrolidin-1-yl)pyridin-3-yl)pyrazolo[1,5-a]pyrimidin-7(4H)-one]"
≤ 10,≤ 10,≤ 10,"COc1ccc2c(c1)CCc1c-2[nH]c2c(-c3ccccn3)cnn2c1=O [Example 121, 3-Methoxy-11-(pyridin-2-yl)-5,6-dihydrobenzo[h]pyrazolo[5,1-b]quinazolin-7(12H)-one]"
≤ 10,≤ 10,≥ 10,"COc1ccc(-c2cc(=O)n3nc(O)c(-c4ccccn4)c3[nH]2)c(OC)c1 [Example 122, 5-(2,4-Dimethoxyphenyl)-2-hydroxy-3(pyridin-2-yl)pyrazolo[1,5-a]pyrimidin-7(4H)-one]"
≤ 10,≤ 10,≥ 10,"O=c1cc(-c2ccc(Cl)cc2)[nH]c2c(-c3ccccn3)c(O)nn12 [Example 123, 5-(4-Chlorophenyl)-2-hydroxy-3-(pyridin-2-yl)pyrazolo[1,5-a]pyrimidin-7(4H)-one]"
≤ 10,≤ 10,≤ 10,"O=c1cc(-c2ccc(F)cc2)[nH]c2c(-c3ccccn3)cnn12 [Example 125, 5-(4-Fluorophenyl)-3-(pyridin-2-yl)pyrazolo[1,5-a]pyrimidin-7(4H)-one]"
≤ 10,≤ 10,≤ 10,"O=c1cc(-c2ccc(Cl)c(Cl)c2)[nH]c2c(-c3ccccn3)cnn12 [Example 126, 5-(3,4-Dichlorophenyl)-3-(pyridin-2-yl)pyrazolo[1,5-a]pyrimidin-7(4H)-one]"
≤ 10,≤ 10,≤ 10,"O=c1cc(-c2ccc3occc3c2)[nH]c2c(-c3ccccc3)c(O)nn12 [Example 127, 5-(Benzofuran-5-yl)-2-hydroxy-3-phenylpyrazolo[1,5-a]pyrimidin-7(4H)-one]"
≤ 10,≤ 10,≥ 10,"O=c1cc(-c2ccc(Cl)cc2)[nH]c2c(-c3cccnc3)c(O)nn12 [Example 128, 5-(4-Chlorophenyl)-2-hydroxy-3-(pyridin-3-yl)pyrazolo[1,5-a]pyrimidin-7(4H)-one]"
≤ 10,≤ 10,≥ 10,"O=c1cc(-c2ccc3c(c2)CCO3)[nH]c2c(-c3ccccn3)c(O)nn12 [Example 129, 5-(2,3-Dihydrobenzofuran-5-yl)-2-hydroxy-3-(pyridin-2-yl)pyrazolo[1,5-a]pyrimidin-7(4H)-one]"
≤ 10,≤ 10,≤ 10,"O=c1cc(-c2ccc3c(c2)CCO3)[nH]c2c(-c3cccnc3)c(O)nn12 [Example 130, 5-(2,3-Dihydrobenzofuran-5-yl)-2-hydroxy-3-(pyridin-3-yl)pyrazolo[1,5-a]pyrimidin-7(4H)-one]"
≤ 10,≤ 10,≤ 10,"O=c1cc(-c2ccc3occc3c2)[nH]c2c(-c3ccccn3)c(O)nn12 [Example 131, 5-(Benzofuran-5-yl)-2-hydroxy-3-(pyridin-2-yl)pyrazolo[1,5-a]pyrimidin-7(4H)-one]"
≤ 10,≤ 10,≤ 10,"O=c1cc(-c2ccc3c(c2)OCO3)[nH]c2c(Cc3ccccc3)cnn12 [Example 133, 5-(Benzo[d][1,3]dioxol-5-yl)-3-benzylpyrazolo[1,5-a]pyrimidin-7(4H)-one]"
≤ 10,≤ 10,≤ 10,"COc1ccccc1-c1cc(=O)n2ncc(-c3ccccn3)c2[nH]1 [Example 135, 5-(2-Methoxyphenyl)-3-(pyridin-2-yl)pyrazolo[1,5-a]pyrimidin-7(4H)-one]"
≤ 10,≤ 10,≥ 10,"O=c1cc(-c2ccc(F)cc2)[nH]c2c(-c3ccccn3)c(O)nn12 [Example 137, 5-(4-Fluorophenyl)-2-hydroxy-3-(pyridin-2-yl)pyrazolo[1,5-a]pyrimidin-7(4H)-one]"
≤ 10,≤ 10,≤ 10,"Nc1nn2c(=O)cc(-c3ccc(Cl)cc3)[nH]c2c1-c1ccccc1 [Example 141, 2-Amino-5-(4-chlorophenyl)-3-phenylpyrazolo[1,5-a]pyrimidin-7(4H)-one]"
≤ 10,≤ 10,≤ 10,"Nc1nn2c(=O)cc(-c3ccc4c(c3)OCCO4)[nH]c2c1-c1ccccc1 [Example 142, 2-Amino-5-(2,3-dihydrobenzo[b][1,4]dioxin-6-yl)-3-phenylpyrazolo[1,5-a]pyrimidin-7(4H)-one]"
≤ 10,≤ 10,≤ 10,"CN(Cc1ccccc1)C(=O)c1cnn2c(=O)cc(-c3ccc4c(c3)OCCO4)[nH]c12 [Example 143, N-Benzyl-5-(2,3-dihydrobenzo[b][1,4]dioxin-6-yl)-N-methyl-7-oxo-4,7-dihydropyrazolo[1,5-a]pyrimidine-3-carboxamide]"
≤ 10,≤ 10,≤ 10,"O=C(NCc1ccccc1)c1cnn2c(=O)cc(-c3ccc(Cl)cc3)[nH]c12 [Example 144, N-Benzyl-5-(4-chlorophenyl)-7-oxo-4,7-dihydropyrazolo[1,5-a]pyrimidine-3-carboxamide]"
